Here are results for 85 sequences from the OligoGym collection.

Bases are written 5' to 3'; sugars and linkages follow in the same order, as letters with counts (s phosphorothioate, o phosphodiester; PS: all linkages phosphorothioate). C may stand for cytosine or 5-methylcytosine; the collection does not tell. l = locked nucleic acid (LNA); d = 2'-deoxy (DNA)

The data set addresses HIF1A. Briefly: HeLa, 100 nM transfected, 24 h, mean of 3. The conditions noted are these: ASO.
“TGGCAAGCATCCTGTA (sugars lddldddddddlldll, PS)” registered a caspase activation (% of PBS control) of 356.

Sequence “TGGCAAGCATCCTGTA (sugars lddldddddddllldl, PS)” displayed a caspase activation (% of PBS control) of 394.

In turn, “TGGCAAGCATCCTGTA (sugars lddllddddddddldl, PS)” yielded a caspase activation (% of PBS control) of 397.

The sequence “TGGCAAGCATCCTGTA (sugars lddlldddddddlddl, PS)” came in with a caspase activation (% of PBS control) of 461.

Sequence “TGGCAAGCATCCTGTA (sugars lddlldddddddldll, PS)” yielded a caspase activation (% of PBS control) of 412.

On to “TGGCAAGCATCCTGTA (sugars lddlldddddddlldl, PS)”, for which the caspase activation (% of PBS control) was found to be 409.

The sequence “TGGCAAGCATCCTGTA (sugars lddllddddddldddl, PS)” registered a caspase activation (% of PBS control) of 361.

In turn, “TGGCAAGCATCCTGTA (sugars lddllddddddlddll, PS)” gave a caspase activation (% of PBS control) of 257.

The sequence “TGGCAAGCATCCTGTA (sugars lddllddddddldldl, PS)” showed a caspase activation (% of PBS control) of 402.

On to “TGGCAAGCATCCTGTA (sugars lddllddddddldlll, PS)”, for which the caspase activation (% of PBS control) was found to be 353.

“TGGCAAGCATCCTGTA (sugars lddllddddddllddl, PS)” yielded a caspase activation (% of PBS control) of 388.

The sequence “TGGCAAGCATCCTGTA (sugars lddllddddddlldll, PS)” came in with a caspase activation (% of PBS control) of 388.

In the case of “TGGCAAGCATCCTGTA (sugars lddllddddddllldl, PS)”, the caspase activation (% of PBS control) is 416.

The sequence “TGGCAAGCATCCTGTA (sugars ldlddddddddddldl, PS)” returned a caspase activation (% of PBS control) of 147.

“TGGCAAGCATCCTGTA (sugars ldldddddddddlddl, PS)” displayed a caspase activation (% of PBS control) of 172.

The sequence “TGGCAAGCATCCTGTA (sugars ldldddddddddldll, PS)” gave a caspase activation (% of PBS control) of 252.

Consider “TGGCAAGCATCCTGTA (sugars ldldddddddddlldl, PS)”, for which the caspase activation (% of PBS control) was 281.

In turn, “TGGCAAGCATCCTGTA (sugars ldlddddddddldddl, PS)” had a caspase activation (% of PBS control) of 160.

As to “TGGCAAGCATCCTGTA (sugars ldlddddddddlddll, PS)”, the caspase activation (% of PBS control) is 218.

“TGGCAAGCATCCTGTA (sugars ldlddddddddldldl, PS)”: the caspase activation (% of PBS control) stood at 206.

With “TGGCAAGCATCCTGTA (sugars ldlddddddddldlll, PS)”, the caspase activation (% of PBS control) was 195.

With “TGGCAAGCATCCTGTA (sugars ldlddddddddllddl, PS)”, the caspase activation (% of PBS control) was found to be 197.

“TGGCAAGCATCCTGTA (sugars ldlddddddddlldll, PS)” registered a caspase activation (% of PBS control) of 227.

As to “TGGCAAGCATCCTGTA (sugars ldlddddddddllldl, PS)”, the caspase activation (% of PBS control) was 254.

“TGGCAAGCATCCTGTA (sugars ldldlddddddddddl, PS)” showed a caspase activation (% of PBS control) of 204.

The sequence “TGGCAAGCATCCTGTA (sugars ldldldddddddddll, PS)” had a caspase activation (% of PBS control) of 210.

Take “TGGCAAGCATCCTGTA (sugars ldldlddddddddldl, PS)”: the caspase activation (% of PBS control) was found to be 176.

Turning to “TGGCAAGCATCCTGTA (sugars ldldlddddddddlll, PS)”, the caspase activation (% of PBS control) came out at 277.

Take “TGGCAAGCATCCTGTA (sugars ldldldddddddlddl, PS)”: the caspase activation (% of PBS control) was found to be 226.

Sequence “TGGCAAGCATCCTGTA (sugars ldldldddddddldll, PS)” registered a caspase activation (% of PBS control) of 290.

In turn, “TGGCAAGCATCCTGTA (sugars ldldldddddddlldl, PS)” yielded a caspase activation (% of PBS control) of 218.

In turn, “TGGCAAGCATCCTGTA (sugars ldldldddddddllll, PS)” showed a caspase activation (% of PBS control) of 309.

“TGGCAAGCATCCTGTA (sugars ldldlddddddldddl, PS)” yielded a caspase activation (% of PBS control) of 179.

“TGGCAAGCATCCTGTA (sugars ldldlddddddlddll, PS)” had a caspase activation (% of PBS control) of 178.

“TGGCAAGCATCCTGTA (sugars ldldlddddddldldl, PS)” registered a caspase activation (% of PBS control) of 175.

For the sequence “TGGCAAGCATCCTGTA (sugars ldldlddddddldlll, PS)”, the caspase activation (% of PBS control) turned out to be 309.

Sequence “TGGCAAGCATCCTGTA (sugars ldldlddddddllddl, PS)” had a caspase activation (% of PBS control) of 219.

In turn, “TGGCAAGCATCCTGTA (sugars ldldlddddddlldll, PS)” came in with a caspase activation (% of PBS control) of 263.

Regarding “TGGCAAGCATCCTGTA (sugars ldldlddddddllldl, PS)”, the caspase activation (% of PBS control) is 261.

As to “TGGCAAGCATCCTGTA (sugars ldldlddddddlllll, PS)”, the caspase activation (% of PBS control) came to 342.

In the case of “TGGCAAGCATCCTGTA (sugars ldlldddddddddldl, PS)”, the caspase activation (% of PBS control) was found to be 297.

Regarding “TGGCAAGCATCCTGTA (sugars ldllddddddddlddl, PS)”, the caspase activation (% of PBS control) came to 438.

“TGGCAAGCATCCTGTA (sugars ldllddddddddldll, PS)” showed a caspase activation (% of PBS control) of 466.

With “TGGCAAGCATCCTGTA (sugars ldllddddddddlldl, PS)”, the caspase activation (% of PBS control) was found to be 412.

Turning to “TGGCAAGCATCCTGTA (sugars ldlldddddddldddl, PS)”, the caspase activation (% of PBS control) stood at 229.

In turn, “TGGCAAGCATCCTGTA (sugars ldlldddddddlddll, PS)” displayed a caspase activation (% of PBS control) of 306.

“TGGCAAGCATCCTGTA (sugars ldlldddddddldldl, PS)” gave a caspase activation (% of PBS control) of 400.

As for “TGGCAAGCATCCTGTA (sugars ldlldddddddldlll, PS)”, the caspase activation (% of PBS control) came out at 435.

Consider “TGGCAAGCATCCTGTA (sugars ldlldddddddllddl, PS)”, for which the caspase activation (% of PBS control) came out at 360.

“TGGCAAGCATCCTGTA (sugars ldlldddddddlldll, PS)” returned a caspase activation (% of PBS control) of 381.

Turning to “TGGCAAGCATCCTGTA (sugars ldlldddddddllldl, PS)”, the caspase activation (% of PBS control) is 438.

Take “TGGCAAGCATCCTGTA (sugars ldlllddddddddldl, PS)”: the caspase activation (% of PBS control) is 448.

Sequence “TGGCAAGCATCCTGTA (sugars ldllldddddddlddl, PS)” displayed a caspase activation (% of PBS control) of 419.

In turn, “TGGCAAGCATCCTGTA (sugars ldllldddddddldll, PS)” displayed a caspase activation (% of PBS control) of 459.

As for “TGGCAAGCATCCTGTA (sugars ldllldddddddlldl, PS)”, the caspase activation (% of PBS control) was found to be 440.

“TGGCAAGCATCCTGTA (sugars ldlllddddddldddl, PS)” had a caspase activation (% of PBS control) of 417.

As to “TGGCAAGCATCCTGTA (sugars ldlllddddddlddll, PS)”, the caspase activation (% of PBS control) stood at 410.

For “TGGCAAGCATCCTGTA (sugars ldlllddddddldldl, PS)”, the caspase activation (% of PBS control) worked out at 455.

For the sequence “TGGCAAGCATCCTGTA (sugars ldlllddddddldlll, PS)”, the caspase activation (% of PBS control) is 476.

Take “TGGCAAGCATCCTGTA (sugars ldlllddddddllddl, PS)”: the caspase activation (% of PBS control) is 495.

In turn, “TGGCAAGCATCCTGTA (sugars ldlllddddddlldll, PS)” came in with a caspase activation (% of PBS control) of 437.

Turning to “TGGCAAGCATCCTGTA (sugars ldlllddddddllldl, PS)”, the caspase activation (% of PBS control) was 490.

Regarding “TGGCAAGCATCCTGTA (sugars lldddddddddldldl, PS)”, the caspase activation (% of PBS control) was found to be 423.

Regarding “TGGCAAGCATCCTGTA (sugars llddlddddddddldl, PS)”, the caspase activation (% of PBS control) came out at 215.

With “TGGCAAGCATCCTGTA (sugars llddldddddddlddl, PS)”, the caspase activation (% of PBS control) was 354.

Take “TGGCAAGCATCCTGTA (sugars llddldddddddldll, PS)”: the caspase activation (% of PBS control) came to 401.

“TGGCAAGCATCCTGTA (sugars llddldddddddlldl, PS)” returned a caspase activation (% of PBS control) of 341.

In the case of “TGGCAAGCATCCTGTA (sugars llddlddddddldddl, PS)”, the caspase activation (% of PBS control) was 383.

The sequence “TGGCAAGCATCCTGTA (sugars llddlddddddlddll, PS)” displayed a caspase activation (% of PBS control) of 455.

As to “TGGCAAGCATCCTGTA (sugars llddlddddddldldl, PS)”, the caspase activation (% of PBS control) was 390.

Regarding “TGGCAAGCATCCTGTA (sugars llddlddddddldlll, PS)”, the caspase activation (% of PBS control) worked out at 425.

For the sequence “TGGCAAGCATCCTGTA (sugars llddlddddddllddl, PS)”, the caspase activation (% of PBS control) stood at 385.

Consider “TGGCAAGCATCCTGTA (sugars llddlddddddlldll, PS)”, for which the caspase activation (% of PBS control) was found to be 446.

The sequence “TGGCAAGCATCCTGTA (sugars llddlddddddllldl, PS)” registered a caspase activation (% of PBS control) of 397.

Sequence “TGGCAAGCATCCTGTA (sugars lldldddddddddldl, PS)” had a caspase activation (% of PBS control) of 522.

“TGGCAAGCATCCTGTA (sugars lldlddddddddlddl, PS)” registered a caspase activation (% of PBS control) of 604.

On to “TGGCAAGCATCCTGTA (sugars lldlddddddddldll, PS)”, for which the caspase activation (% of PBS control) was determined as 502.

Regarding “TGGCAAGCATCCTGTA (sugars lldlddddddddlldl, PS)”, the caspase activation (% of PBS control) turned out to be 461.

On to “TGGCAAGCATCCTGTA (sugars lldldddddddldddl, PS)”, for which the caspase activation (% of PBS control) came to 322.

“TGGCAAGCATCCTGTA (sugars lldldddddddlddll, PS)” gave a caspase activation (% of PBS control) of 460.

As to “TGGCAAGCATCCTGTA (sugars lldldddddddldldl, PS)”, the caspase activation (% of PBS control) came to 429.

In the case of “TGGCAAGCATCCTGTA (sugars lldldddddddldlll, PS)”, the caspase activation (% of PBS control) was 423.

On to “TGGCAAGCATCCTGTA (sugars lldldddddddllddl, PS)”, for which the caspase activation (% of PBS control) was found to be 309.

In the case of “TGGCAAGCATCCTGTA (sugars lldldddddddlldll, PS)”, the caspase activation (% of PBS control) stood at 410.

Sequence “TGGCAAGCATCCTGTA (sugars lldldddddddllldl, PS)” gave a caspase activation (% of PBS control) of 419.
